In US20050118109A1, “Method for treating lung diseases associated with ventilation-perfusion mismatches” (priority 2003, published 2005):

Columns and labels:
[1] = system: pulmonary vascular system; conditions: in vivo; cited from earlier work
Type I binding sites = target: T1, Type I binding sites (Homo sapiens, UniProt P41586); conditions: cited from earlier work
T1 sequence (P41586 21-468): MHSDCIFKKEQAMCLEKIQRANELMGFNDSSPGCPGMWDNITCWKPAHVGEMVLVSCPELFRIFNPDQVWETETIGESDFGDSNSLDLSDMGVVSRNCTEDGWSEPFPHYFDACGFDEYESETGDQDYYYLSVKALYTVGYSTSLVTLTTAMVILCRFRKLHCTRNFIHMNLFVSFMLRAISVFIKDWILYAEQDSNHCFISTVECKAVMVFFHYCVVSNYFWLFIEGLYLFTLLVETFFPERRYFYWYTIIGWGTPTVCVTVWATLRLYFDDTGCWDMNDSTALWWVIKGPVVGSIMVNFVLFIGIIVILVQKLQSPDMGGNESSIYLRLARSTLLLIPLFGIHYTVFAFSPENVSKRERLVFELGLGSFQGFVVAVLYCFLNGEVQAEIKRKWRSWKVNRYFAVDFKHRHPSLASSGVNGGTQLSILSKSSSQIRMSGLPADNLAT

[2] = system: patient with chronic bronchitis with V/Q-mismatch; assay: Inhalation of VIP by patient No. 4: chronic bronchitis with V/Q-mismatch, no bronchial obstruction; type: in vivo, human
[3] = system: arthritis in an experimental model; conditions: treatment with VIP; cited from earlier work
[4] = patient No. 4, after 1 and 2 days of inhalation

## His-Ser-Asp-Ala-Val-Phe-Thr-Asp-Asn-Tyr-Thr-Arg-Leu-Arg-Lys-Gln-Met-Ala-Val-Lys-Lys-Tyr-Leu-Asn-Ser-Ile-Leu-Asn [VIP]
[1]
  resistance in the pulmonary vascular system: decrease the resistance
Type I binding sites
  affinity for type I binding sites: much lower affinity
[2]; [4]
  pulmonary gas exchange in lung function analysis: completely normal pulmonary gas exchange
  severe decrease of paO2 caused by V/Q-mismatch: significantly ameliorated
[2]; patient No. 4, after inhalation of VIP
  V/Q-mismatch: totally removed
[3]
  incidence and severity of arthritis: reduce significantly
  joint swelling and destruction of cartilage and bone: completely abrogating
